The source of these data is article PMC12723449, “From Pharmacophore to Warhead: NAD^+‐Targeting Triazoles as Mechanism‐Based Sirtuin Inhibitors” (Angewandte Chemie (International Ed. in English), 2025).

Read-outs that look alike come from different tables or passages of the source. Where only a bound is given, the exact number is not on record here.

Common to all, as to format: biochemical
One assay has as its target T1, SIRT1 (Homo sapiens, UniProt Q96EB6).
T1 construct: For assay experiments, strep-tagged human SIRT1134−747 and SIRT256-356 were expressed and purified as previously; Strep-tag; made in house; host or cells: E. coli BL21 Star (DE3)
T1 sequence (Q96EB6 134-747 limits assumed): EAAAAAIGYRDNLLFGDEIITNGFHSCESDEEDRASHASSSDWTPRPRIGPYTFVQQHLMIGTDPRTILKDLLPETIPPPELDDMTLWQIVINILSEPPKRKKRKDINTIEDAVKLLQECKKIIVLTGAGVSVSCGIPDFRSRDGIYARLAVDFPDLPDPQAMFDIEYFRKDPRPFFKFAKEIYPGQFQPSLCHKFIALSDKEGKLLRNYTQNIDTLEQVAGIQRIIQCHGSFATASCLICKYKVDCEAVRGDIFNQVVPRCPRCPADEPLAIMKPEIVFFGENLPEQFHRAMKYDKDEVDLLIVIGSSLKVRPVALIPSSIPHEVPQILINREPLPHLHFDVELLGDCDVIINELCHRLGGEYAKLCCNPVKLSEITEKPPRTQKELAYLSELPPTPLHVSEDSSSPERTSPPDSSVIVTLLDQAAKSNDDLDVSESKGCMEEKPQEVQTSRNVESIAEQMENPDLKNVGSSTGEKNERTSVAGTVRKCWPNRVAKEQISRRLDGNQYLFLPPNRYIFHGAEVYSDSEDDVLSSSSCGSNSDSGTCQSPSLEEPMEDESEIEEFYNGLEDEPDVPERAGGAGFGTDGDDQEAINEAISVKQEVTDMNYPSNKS
As to the kind of experiment: Fluorescence-based deacetylation assay (ZMAL-assay), SIRT1. Particulars: 37 °C, assay limit 0.10 µM. The method, then:
(§1) Determination of IC50 values (SIRT1, SIRT2, SIRT3) via fluorescence-based deacetylation assay […]
(§2) The fluorescence-based deacetylation assay was conducted in a black 384-well microplate (OptiPlate-384 F, PerkinElmer) with a total volume of 30 µL per well and a final DMSO concentration of 2% (v/v) according to a […]
(§3) concentration of 100 nM) in assay buffer (50 mM Tris, 137 mM NaCl, 2.7 mM KCl, 1m MgCl2, 0.01% Tween, 0.05 mg/mL BSA, 0.2 mM TCEP, pH 8.0), 5 µL of substrate (ZMAL, final concentration of 10.5 µM), 5 µL of NAD+ (final concentration of 500 µM) and 10 µL of inhibitor solution (final concentration of 30 µM – 0.014 µM, serial 1:3 dilutions) was incubated at 37 °C and 300 rpm for 4 h. A solution of trypsin (final concentration of 0.5 mg/mL) and nicotinamide (final concentration of 4 mM) was added and incubated at 37 °C and 300 rpm for 30 min to stop the reaction. Samples with 2% (v/v) DMSO instead of inhibitor were prepared as a positive control, and samples with 2% (v/v) DMSO instead of SIRT enzyme were prepared as a negative control. Fluorescence intensity was measured with a microplate reader (λEx = 380-10 nm, λEm = 460 nm, BMG POLARstar Optima, BMG Labtech, Germany). IC50 values were then determined using a nonlinear regression fit with Origin Pro 2019 software. All experiments were performed at least in duplicates. […]

For the next assay, the target named is T2, SIRT3 (Homo sapiens, UniProt Q9NTG7).
T2 construct: Human SIRT3118-395 was expressed and purified as previously described.[5]; made in house
T2 sequence (Q9NTG7 118-395 limits assumed): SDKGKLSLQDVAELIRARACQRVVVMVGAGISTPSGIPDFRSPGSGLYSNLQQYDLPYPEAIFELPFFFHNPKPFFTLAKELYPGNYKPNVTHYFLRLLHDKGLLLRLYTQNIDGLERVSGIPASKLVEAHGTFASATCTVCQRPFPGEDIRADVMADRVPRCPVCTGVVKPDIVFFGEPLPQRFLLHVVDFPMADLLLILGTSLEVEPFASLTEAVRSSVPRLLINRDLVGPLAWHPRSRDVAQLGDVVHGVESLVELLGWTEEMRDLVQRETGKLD
As to the kind of experiment: Fluorescence-based deacetylation assay (ZMAL-assay), SIRT3. Particulars: 37 °C, assay limit 0.10 µM. As for the experimental part: as §1, §2, §3

The target of a further assay is T3, SIRT2 (Homo sapiens, UniProt Q8IXJ6).
T3 construct: For assay experiments, strep-tagged human SIRT1134−747 and SIRT256-356 were expressed and purified as previously; Strep-tag; made in house; host or cells: E. coli BL21 Star (DE3)
T3 sequence (Q8IXJ6 56-356 limits assumed): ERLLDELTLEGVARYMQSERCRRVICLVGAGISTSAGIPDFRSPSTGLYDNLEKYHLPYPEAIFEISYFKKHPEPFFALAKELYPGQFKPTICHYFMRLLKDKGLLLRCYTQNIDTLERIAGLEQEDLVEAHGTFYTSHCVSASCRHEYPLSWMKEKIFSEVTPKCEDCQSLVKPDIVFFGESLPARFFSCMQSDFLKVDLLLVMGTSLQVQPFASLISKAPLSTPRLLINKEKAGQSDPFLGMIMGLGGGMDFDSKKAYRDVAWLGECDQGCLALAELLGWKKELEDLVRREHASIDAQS
As to the kind of experiment: Fluorescence-based demyristoylation assay (BSA-Assay). As for the experimental part:
Determination of IC50 values (SIRT2) via fluorescence-based demyristoylation assay (BSA-Assay) The fluorescence-based demyristoylation assay was conducted in a continuous manner in a black 384-well microplate (OptiPlate-384 F, PerkinElmer) with a total volume of 40 µL per well and a final DMSO concentration of 5% (v/v), following a published procedure.[9] A mixture of 14 µL SIRT2 (final concentration of 1 nM) in assay buffer (20 mM Tris, 150 mM NaCl, […], pH 7.8) freshly supplemented with 2 mg/mL of BSA, 14 µL of substrate (F4, KM = 33 ± 5 nM[9], final concentration of 40 nM) and 2 µL of inhibitor solution (final concentration of 100 µM – 0.002 µM, serial 1:2 or 1:4 dilutions) was incubated at 25 °C and 350 rpm for 5 min. Samples with 5% (v/v) DMSO instead of inhibitor were measured as a positive control, and samples with assay buffer and 5% (v/v) DMSO instead of SIRT2 were measured as a negative control. The reaction was started with the addition of 10 µL NAD+ (final concentration of 500 µM) and the product formation was immediately monitored by the change of the fluorescence intensity at 25 °C for 20 min. For NAD+ preincubation experiments, instead of the substrate, 10 µL of NAD+ (final concentration of 500 µM) was added to the solution and incubated at 25 °C and 350 rpm for 15 min. The reaction was started with the addition of 14 µL substrate (final concentration of 40 nM) and the product formation was immediately monitored by the change of the fluorescence intensity at 25 °C every 60 s for 20 min using a microplate reader (λEx = 485 nm, λEm = 530-10 nm, BMG POLARstar Optima, BMG Labtech, Germany).
The activity was normalized using the positive control as 100% and the negative control as 0%. The normalized activity (v/v0) was plotted as a function of the logarithm of the inhibitor concentration [I], and a nonlinear fit was performed according to the following equation to determine the IC50 value.[9] […]

Setting [1] is: BSA-Assay, 25 °C, read-out: SIRT2 (demyr.) IC50.

For `Cc1cc(C)nc(SCC(=O)Nc2ncc(Cc3cccc(OCc4c[nH]nn4)c3)s2)n1` [Compound 7], on SIRT1, the “SIRT1 (deac.) IC50” value is “n.i”. Also, at SIRT3, the “SIRT3 (deac.) IC50” value is on record as “n.i”. Further, the half-maximal inhibitory concentration (IC50) on SIRT2 (setting [1]) was more than 10000 nM.

As to `CCCCCCCCCCCCc1cn(CCCC[C@H](NC(=O)[C@H](CCCCN)NC(=O)[C@@H]2CCCN2C(=O)[C@H](CC(C)C)NC(=O)[C@H](C)NC(=O)[C@H](CCC(=O)O)NC(C)=O)C(=O)N[C@H](C(=O)NCC(=O)NCC(N)=O)[C@@H](C)O)nn1` [Compound 6], the concentration for half-maximal inhibition (IC50) was less than 100 nM on SIRT1 (read-out: SIRT1 (deac.) IC50); 130 ± 10 nM at SIRT3 (read-out: SIRT3 (deac.) IC50); 3.6 ± 0.6 nM at SIRT2 (15 min NAD+ preincubation, read-out: IC50, SIRT2 demyristoylation after NAD+ preincubation); 30 ± 10 nM at SIRT2 (setting [1]); 28 ± 6 nM on SIRT2 (fatty-acylated substrate, without NAD+ preincubation, read-out: IC50, SIRT2 demyristoylation).

For the molecule `COCCn1cc(COc2cccc(Cc3cnc(NC(=O)CSc4nc(C)cc(C)n4)s3)c2)nn1` [Compound 1, reference compound], the “SIRT1 (deac.) IC50” value at SIRT1 is recorded as “n.i”. The “SIRT3 (deac.) IC50” value on SIRT3 is listed as “n.i”. The IC50 at SIRT2 (setting [1]) is 660 ± 100 nM.

Broadly, the IC50 is the midpoint of a concentration-inhibition curve.
